From patent publication US20110245242A1, “Heterocyclically Substituted Anilinopyrimides” (Bayer CropScience AG, priority 2008, published 2011) come the findings set out here.

This series can be described thus: log P by LC-MS, method [b], acid range pH 2.7. Type of series: physicochemical. Conditions: pH 2.7. The procedure:
The log P values were measured in accordance with EEC Directive 79/831 Annex V.A8 by HPLC (High Performance Liquid Chromatography) on reversed-phase columns (C 18) using the methods below:
[b] The LC-MS determination in the acid range was carried out at pH 2.7 using the mobile phases 0.1% aqueous formic acid and acetonitrile (contains 0.1% formic acid)
linear gradient from 10% acetonitrile to 95% acetonitrile.

Molecules are shown by their SMILES.

Turning to `CC(C)[C@@H]1COC(=O)N1c1cccc(Nc2ncc(Cl)c(NC3CCC3)n2)c1` [Example 101], the log p is 2.38[b].

Regarding `CC1CC(Nc2nc(Nc3cccc(N4C(=O)CCC4C)c3)ncc2Br)C1` (stereo not drawn) [Example 317], the log p is 2.17[b].

As to `O=C1CCCN1c1cccc(Nc2ncc(C(F)(F)F)c(NC3COC3)n2)c1` [Example 322], the log p is 1.84[b].

Consider `CC1COC(=O)N1c1cccc(Nc2ncc(Cl)c(N(C)C3CC3)n2)c1` (stereo not drawn) [Example 176], for which the log p was 2.29[b].

For `CC1CC(C)N(c2cccc(Nc3ncc(Cl)c(NCC(F)F)n3)c2)C1=O` (stereo not drawn) [Example 157], the log p was 2.11[b].

Turning to `C[C@H]1COC(=O)N1c1cccc(Nc2ncc(Cl)c(NC3CCC3)n2)c1` [Example 93], the log p was 1.82[b].

For `CC(C)Nc1nc(Nc2cccc(N3C(=O)C(C)CC3C)c2)ncc1Br` (stereo not drawn) [Example 149], the log p is 1.98[b].

In the case of `CC1(C)CC(=O)N(c2cccc(Nc3ncc(Br)c(NCC(F)F)n3)c2)C1=O` [Example 164], the log p was 2.08[b].

For the compound `O=C1OCCN1c1cccc(Nc2ncc(Cl)c(NCC(F)(F)F)n2)c1` [Example 175], the log p is 2.01[b].

Turning to `CC1CC(=O)N(c2cccc(Nc3ncc(Cl)c(NC4CC4)n3)c2)C1` (stereo not drawn) [Example 96], the log p was 1.75[b].

Take `CC(C)[C@@H]1COC(=O)N1c1cccc(Nc2ncc(Cl)c(NC3CC3)n2)c1` [Example 75]: the log p is 2.39[b].

For the compound `CC(C)Nc1nc(Nc2cccc(N3C(=O)CC(C)(C)C3=O)c2)ncc1Br` [Example 148], the log p is 1.93[b].

Consider `CC(C)Nc1nc(Nc2cccc(N3CCOCC3=O)c2)ncc1Br` [Example 151], for which the log p was 1.47[b].

Consider `O=C1OCCN1c1cccc(Nc2ncc(Br)c(NCC(F)F)n2)c1` [Example 162], for which the log p is 1.71[b].

Take `C[C@@H]1C[C@H](C)N(c2cccc(Nc3ncc(Br)c(NCC(F)F)n3)c2)C1=O` [Example 189]: the log p was 3.24[b].

Turning to `COCC(C)Nc1nc(Nc2cccc(N3C(=O)OC[C@@H]3C(C)C)c2)ncc1Cl` (stereo partly drawn) [Example 117], the log p is 2.1[b].

As to `CC1CC(=O)N(c2cccc(Nc3ncc(Br)c(NC4CC4)n3)c2)C1=O` (stereo not drawn) [Example 66], the log p was 1.78[b].

Consider `O=c1ccccn1-c1cccc(Nc2ncc(Br)c(NC3CCC3)n2)c1` [Example 221], for which the log p is 1.71[b].

Turning to `CC1CC(Nc2nc(Nc3cccc(N4CCN(C)C4=O)c3)ncc2Br)C1` (stereo not drawn) [Example 290], the log p is 2[b].

With `O=C1OCCN1c1cccc(Nc2ncc(Cl)c(NCC(F)F)n2)c1` [Example 154], the log p is 1.63[b].

For the compound `CC1CC(C)N(c2cccc(Nc3ncc(Br)c(NC4CCC4)n3)c2)C1=O` (stereo not drawn) [Example 85], the log p was 2.3[b].

Consider `CC1CCC(=O)N1c1cccc(Nc2ncc(Cl)c(NCC(F)F)n2)c1` (stereo not drawn) [Example 160], for which the log p was 1.81[b].

Regarding `CC(C)Nc1nc(Nc2ccc(N3CCOC3=O)cc2)ncc1Cl` [Example 64], the log p was 1.49[b].

Regarding `CC1(C)CC(=O)N(c2cccc(Nc3ncc(Cl)c(NCC(F)F)n3)c2)C1=O` [Example 156], the log p is 2.01[b].

On to `O=c1ccccn1-c1cccc(Nc2ncc(Cl)c(NC3CCC3)n2)c1` [Example 16], for which the log p was 2.17[b].

Turning to `C[C@H]1COC(=O)N1c1cccc(Nc2ncc(Br)c(NC3CC3)n2)c1` [Example 95], the log p was 1.65[b].

Consider `CN(c1cccc(N2CCCC2=O)c1)c1ncc(Cl)c(NC2CCC2)n1` [Example 83], for which the log p is 1.63[b].

Consider `O=C1COCCN1c1cccc(Nc2ncc(Br)c(NCC(F)F)n2)c1` [Example 166], for which the log p was 1.51[b].

Regarding `CC1COC(=O)N1c1ccc(Nc2ncc(Cl)c(N(C)C3CC3)n2)cc1` (stereo not drawn) [Example 179], the log p is 2.16[b].

On to `CC(C)Nc1nc(Nc2cccc(N3C(=O)OC[C@@H]3C(C)C)c2)ncc1Cl` [Example 110], for which the log p was 2.1[b].

Take `O=C1CCCN1c1cccc(Nc2ncc(Cl)c(NC3CCCC3)n2)c1` [Example 42]: the log p was 1.92[b].

Take `CC1CC(=O)N(c2cccc(Nc3ncc(Br)c(NCC4CC4)n3)c2)C1=O` (stereo not drawn) [Example 74]: the log p was 1.78[b].

Regarding `O=C1OCC(c2ccccc2)N1c1cccc(Nc2ncc(Cl)c(NC3CC3)n2)c1` (stereo not drawn) [Example 88], the log p is 2.27[b].

Take `CC(C)Nc1nc(Nc2cccc(N3C(=O)OCC3C)c2)ncc1Br` (stereo not drawn) [Example 147]: the log p is 1.73[b].

For the compound `CC1CC(=O)N(c2cccc(Nc3ncc(Cl)c(NCC4CC4)n3)c2)C1=O` (stereo not drawn) [Example 71], the log p was 1.68[b].

As for `CN1CCN(c2cccc(Nc3ncc(C(F)(F)F)c(NC4CC4)n3)c2)C1=O` [Example 293], the log p was 2.22[b].

In the case of `CC(C)Nc1nc(Nc2cccc(N3C(=O)OCC3C(C)C)c2)ncc1Br` (stereo not drawn) [Example 129], the log p was 2.24[b].

For `CC(C)Nc1nc(Nc2cccc(N3CCCCC3=O)c2)ncc1Br` [Example 134], the log p was 1.57[b].

On to `CC1CCC(=O)N1c1cccc(Nc2ncc(Br)c(NCC3CC3)n2)c1` (stereo not drawn) [Example 133], for which the log p is 1.77[b].

`CC(C)Nc1nc(Nc2cccc(N3C(=O)CCC3C)c2)ncc1Br` (stereo not drawn) [Example 152]: the log p is 1.73[b].

For the compound `COCC(C)Nc1nc(Nc2cccc(N3CCCC3=O)c2)ncc1Br` (stereo not drawn) [Example 5], the log p is 1.6[b].

Take `O=C1OCC(c2ccccc2)N1c1cccc(Nc2ncc(Br)c(NC3CCC3)n2)c1` (stereo not drawn) [Example 90]: the log p is 2.8[b].

Turning to `O=C1CCCN1c1cccc(Nc2ncc(C(F)(F)F)c(NC3CCCC3)n2)c1` [Example 303], the log p is 3.04[b].

As to `CN1CCN(c2cccc(Nc3ncc(I)c(NC4CC4)n3)c2)C1=O` [Example 296], the log p is 1.57[b].

On to `O=C1N(CCCl)CCN1c1cccc(Nc2ncc(Cl)c(NC3CC3)n2)c1` [Example 286], for which the log p was 1.82[b].

For `CN(c1nc(Nc2cccc(N3CCCC3=O)c2)ncc1C(F)(F)F)C1CCCC1` [Example 319], the log p was 3.56[b].

Regarding `CC1CCC(=O)N1c1cccc(Nc2ncc(Cl)c(NCC(F)(F)F)n2)c1` (stereo not drawn) [Example 174], the log p was 2.16[b].

As to `COCC(C)Nc1nc(Nc2cccc(N3CCOC3=O)c2)ncc1Cl` (stereo not drawn) [Example 67], the log p is 1.54[b].

Turning to `CC(C)[C@H]1COC(=O)N1c1cccc(Nc2ncc(Cl)c(NCC3CC3)n2)c1` [Example 109], the log p was 2.17[b].

As for `CC1CC(Nc2nc(Nc3cccc(N4C(=O)CCC4=O)c3)ncc2Br)C1` (stereo not drawn) [Example 288], the log p is 1.86[b].

Take `CCC1CC1Nc1nc(Nc2cccc(N3CCCC3=O)c2)ncc1Cl` (stereo not drawn) [Example 242]: the log p was 1.99[b].

As to `O=C1CCCN1c1cc(Nc2ncc(C(F)(F)F)c(NCC3CC3)n2)ccc1F` [Example 201], the log p was 2.41[b].

Consider `O=C1N(CCCl)CCN1c1cccc(Nc2ncc(Br)c(NC3CC3)n2)c1` [Example 285], for which the log p is 1.92[b].

Consider `CC1CC(=O)N(c2cccc(Nc3ncc(Br)c(NCC(F)F)n3)c2)C1=O` (stereo not drawn) [Example 168], for which the log p is 1.78[b].

For the compound `CC1COC(=O)N1c1cccc(Nc2ncc(Br)c(NCC(F)F)n2)c1` (stereo not drawn) [Example 163], the log p is 1.88[b].

For the compound `COCC(C)Nc1nc(Nc2ccc(N3CCOC3=O)cc2)ncc1Cl` (stereo not drawn) [Example 12], the log p is 1.46[b].

Regarding `CC1CC(=O)N(c2cccc(Nc3ncc(Cl)c(NC4CCC4)n3)c2)C1` (stereo not drawn) [Example 97], the log p is 2.02[b].

Turning to `COCC(C)Nc1nc(Nc2cccc(N3C(=O)OC[C@H]3C)c2)ncc1Br` (stereo partly drawn) [Example 183], the log p was 1.71[b].

On to `CC1(C)CC(=O)N(c2cccc(Nc3ncc(Cl)c(NC4CCC4)n3)c2)C1=O` [Example 29], for which the log p is 2.07[b].

For `CC(C)C1COC(=O)N1c1cccc(Nc2ncc(Br)c(NCC(F)F)n2)c1` (stereo not drawn) [Example 130], the log p was 2.5[b].

Regarding `CCCNc1nc(Nc2cccc(N3CCCC3=O)c2)ncc1Cl` [Example 307], the log p was 1.49[b].

`CCC1COC(=O)N1c1cccc(Nc2ncc(Br)c(NC3CCC3)n2)c1` (stereo not drawn) [Example 34]: the log p is 2.24[b].

For the compound `CNc1nc(Nc2cccc(N3CCCC3=O)c2)ncc1C(F)(F)F` [Example 323], the log p was 1.63[b].

Consider `CC(C)[C@H]1COC(=O)N1c1cccc(Nc2ncc(Cl)c(NCC(F)F)n2)c1` [Example 112], for which the log p is 2.39[b].

On to `CC1(C)CC1Nc1nc(Nc2cccc(N3CCCC3=O)c2)ncc1C(F)(F)F` (stereo not drawn) [Example 321], for which the log p is 3.04[b].

Take `O=C1OCC(c2ccccc2)N1c1cccc(Nc2ncc(Cl)c(NC3CCC3)n2)c1` (stereo not drawn) [Example 89]: the log p was 2.65[b].

Consider `CC1COC(=O)N1c1ccc(Nc2ncc(Cl)c(NCC(F)(F)F)n2)cc1` (stereo not drawn) [Example 172], for which the log p was 2.06[b].

As to `COCC(C)Nc1nc(Nc2ccc(N3C(=O)OCC3C)cc2)ncc1Cl` (stereo not drawn) [Example 3], the log p was 1.54[b].

On to `COCC(C)Nc1nc(Nc2ccc(N3C(=O)OCC3C)cc2)ncc1Br` (stereo not drawn) [Example 4], for which the log p is 1.61[b].

Consider `CC1CCC(=O)N1c1cccc(Nc2ncc(Cl)c(N(C)C3CC3)n2)c1` (stereo not drawn) [Example 180], for which the log p is 2.26[b].

Turning to `CC1(C)CN(c2cccc(Nc3ncc(Br)c(NC4CC4)n3)c2)C1=O` [Example 52], the log p was 2.18[b].

As to `COCC(C)Nc1nc(Nc2cccc(N3C(=O)CC(C)C3=O)c2)ncc1Br` (stereo not drawn) [Example 70], the log p was 1.68[b].

With `CC1COC(=O)N1c1ccc(Nc2ncc(Br)c(NCC(F)F)n2)cc1` (stereo not drawn) [Example 165], the log p is 1.78[b].

For `COCC(C)Nc1nc(Nc2cccc(N3CCCC3=O)c2)ncc1C#N` (stereo not drawn) [Example 24], the log p was 1.99[b].

For the compound `CC1CCC(=O)N1c1cccc(Nc2ncc(Cl)c(NC3CCC3)n2)c1` (stereo not drawn) [Example 37], the log p is 1.83[b].
